Reference: paper PMC7845594, “Novel Immune Modulators Enhance Caenorhabditis elegans Resistance to Multiple Pathogens” (mSphere, 2021)

System: C. elegans transcriptome
Assay: Transcriptome profiling (Affymetrix microarrays), differentially expressed genes
Assay type: in vivo, Caenorhabditis elegans
Conditions: for Fold Change: downregulated genes
Protocol: To gain additional insight into the effect of LK molecules on C. elegans, young-adult, wild-type worms were treated with each drug at 100 µM for 8 h in the absence of pathogen. RNA was collected, and transcriptome profiling was performed.
Data were determined using Affymetrix microarrays, as described in Materials and Methods. Download Table S3, XLSX file, 0.07 MB.
Transcriptome profiling was performed on ∼6,000 wild-type, young adult worms incubated with either LK molecules or DMSO for 8 h. RNA isolation was performed using TRIzol extraction, followed by cleanup using RNeasy columns according to the manufacturer’s protocol. Each condition was analyzed in triplicate. Microarray data have been deposited in the GEO database, accession number GSE137516. […] Clustering and generation of the heat map was performed using Cluster 3.0 ([98]) and Treeview ([99]), respectively. Fold change of genes were normalized to average fold change of that gene over all clustered conditions. Genes and conditions were clustered using Euclidean distance and average linkages. […] Microarray data for non-LK molecules were collected from GEO omnibus. WormEXP was used as a secondary method for confirming statistical significance of potential pathways stimulated by each of the LK molecules ([100]). Gene ontologies were generated using DAVID ([101], [102]).

[1] = Downregulated genes, Affy_ID 171867_x_at
[2] = Downregulated genes, Affy_ID 176276_s_at

SMILES: CCN(CC)/N=N/c1ccc(C(=O)O)cc1 [LK35]
- Fold Change (Affy_ID 171811_s_at, listed under genes K01D12.7 (LK34, LK38), C57047 (LK35), K01D12.15 (LK38)): 0.292
- Fold Change (Affy_ID 171867_x_at, listed under genes C09B9.6, F36H12.7, K07F5.1, R05F9.13, R13H9.2, R13H9.4, T13F2.10, T13F2.11, Y59E9AR.1, Y59E9AR.7, ZK354.1): 0.2025
- Fold Change (Affy_ID 171880_x_at, listed under genes C24D10.7 and C24D10.8): 0.4703
- Fold Change, gene Y59E9AR.1 [1]: 0.2025
- Fold Change, gene Y59E9AR.7 [1]: 0.2025
- Fold Change, gene ZK354.1 [1]: 0.2025
- Fold Change, gene ZK354.10 [1]: 0.2025
- Fold Change, gene ZK354.11 [1]: 0.2025
- Fold Change, gene ZK354.4 [1]: 0.2025
- Fold Change, gene ZK354.5 [1]: 0.2025
- Fold Change, gene ZK131.11 (Downregulated genes, Affy_ID 171916_s_at): 0.3792
- Fold Change, gene Y59H11AM.1 (Downregulated genes, Affy_ID 172113_x_at): 0.2252
- Fold Change, gene Y71H2AL.C (Downregulated genes, Affy_ID 172177_x_at): 0.4472
- Fold Change, gene ZK525.1 (Downregulated genes, Affy_ID 172214_x_at): 0.281
- Fold Change, gene T23B7.1 (Downregulated genes, Affy_ID 172486_x_at): 0.3276
- Fold Change, gene Y105C5A.13 (Downregulated genes, Affy_ID 172627_x_at): 0.07461
- Fold Change, gene T28H11.6 (Downregulated genes, Affy_ID 172704_x_at): 0.2084
- Fold Change, gene ZK1248.4 (Downregulated genes, Affy_ID 172734_x_at): 0.2437
- Fold Change, gene ZK546.3 (Downregulated genes, Affy_ID 172798_x_at): 0.1152
- Fold Change, gene ZK131.7 (Downregulated genes, Affy_ID 172871_x_at): 0.3252
- Fold Change, gene ZK1248.6 (Downregulated genes, Affy_ID 172887_x_at): 0.1434
- Fold Change, gene ZK546.6 (Downregulated genes, Affy_ID 172900_x_at): 0.1383
- Fold Change, gene ZK1251.6 (Downregulated genes, Affy_ID 172938_x_at): 0.1992
- Fold Change, gene Y43F8B.2 (Downregulated genes, Affy_ID 173326_s_at): 0.3741
- Fold Change, gene T27E4.7 (Downregulated genes, Affy_ID 173756_at): 0.207
- Fold Change, gene Y54G2A.7 (Downregulated genes, Affy_ID 174102_at): 0.2822
- Fold Change, gene ZK809.8 (Downregulated genes, Affy_ID 175557_at): 0.3895
- Fold Change, gene ZK112.1 (Downregulated genes, Affy_ID 175995_at): 0.2683
- Fold Change, gene Y119D3B.13 (Downregulated genes, Affy_ID 176131_at): 0.2184
- Fold Change, gene Y69A2AR.12 [2]: 0.2706
- Fold Change, gene Y69A2AR.25 [2]: 0.2706
- Fold Change, gene Y71H2AM.13 (Downregulated genes, Affy_ID 176285_s_at): 0.4282
- Fold Change, gene Y71G12B.4 (Downregulated genes, Affy_ID 176544_at): 0.3363
- Fold Change, gene Y54G2A.14 (Downregulated genes, Affy_ID 177004_s_at): 0.3979
- Fold Change, gene Y73B6BL.24 (Downregulated genes, Affy_ID 177183_s_at): 0.3786
- Fold Change, gene Y71H2AL.1 (Downregulated genes, Affy_ID 177190_at): 0.2701
- Fold Change, gene ZK669.2 (Downregulated genes, Affy_ID 179491_at): 0.1961
- Fold Change, gene ZK550.2 (Downregulated genes, Affy_ID 179513_at): 0.2553
- Fold Change, gene T23F4.3 (Downregulated genes, Affy_ID 179815_at): 0.0609
- Fold Change, gene Y51H4A.7 (Downregulated genes, Affy_ID 180145_s_at): 0.2617
- Fold Change, gene T23F4.1 (Downregulated genes, Affy_ID 180223_s_at): 0.03953
- Fold Change, gene W04B5.2 (Downregulated genes, Affy_ID 180561_at): 0.4474
- Fold Change, gene ZK484.5 (Downregulated genes, Affy_ID 182193_at): 0.3211
- Fold Change, gene Y44A6C.1 (Downregulated genes, Affy_ID 182843_at): 0.3152
- Fold Change, gene Y45F10A.5 (Downregulated genes, Affy_ID 184558_at): 0.1919
- Fold Change, gene T23B12.8 (Downregulated genes, Affy_ID 184855_at): 0.1557
- Fold Change, gene Y105C5B.5 (Downregulated genes, Affy_ID 185106_at): 0.254
- Fold Change, gene W01A11.6 (Downregulated genes, Affy_ID 186120_at): 0.4275
- Fold Change, gene T27A10.7 (Downregulated genes, Affy_ID 186153_s_at): 0.3382
- Fold Change, gene Y18D10A.23 (Downregulated genes, Affy_ID 186886_s_at): 0.3476
- Fold Change, gene Y105C5A.24 (Downregulated genes, Affy_ID 187121_at): 0.3662
- Fold Change, gene ZC416.6 (Downregulated genes, Affy_ID 188470_s_at): 0.2458
- Fold Change, gene T25C12.3 (Downregulated genes, Affy_ID 188823_s_at): 0.2936
- Fold Change, gene ZK593.1 (Downregulated genes, Affy_ID 189095_at): 0.3436
- Fold Change, gene ZK484.2 (Downregulated genes, Affy_ID 189882_at): 0.286
- Fold Change, gene ZK131.4 (Downregulated genes, Affy_ID 190307_s_at): 0.2791
- Fold Change, gene Y40D12A.2 (Downregulated genes, Affy_ID 191017_at): 0.3228
- Fold Change, gene W07B8.5 (Downregulated genes, Affy_ID 191887_s_at): 0.2934
- Fold Change, gene Y51A2D.13 (Downregulated genes, Affy_ID 192992_at): 0.2251
- Fold Change, gene Y69E1A.5 (Downregulated genes, Affy_ID 193144_at): 0.316
- Fold Change, gene Y111B2A.13 (Downregulated genes, Affy_ID 193715_at): 0.4867
- Fold Change, gene Y48A6B.7 (Downregulated genes, Affy_ID 193926_at): 0.205
- Fold Change, gene ZK666.7 (Downregulated genes, Affy_ID 194066_s_at): 0.1175
- Fold Change (Gene AC3.7, Affy_ID 190879_at): 0.1754
- Fold Change (Gene B0035.13, Affy_ID 188123_at): 0.2664
- Fold Change (Gene C02F5.7, Affy_ID 191772_at): 0.3854
- Fold Change (Gene C04G2.4, Affy_ID 172853_x_at): 0.1724
- Fold Change (Gene C05C10.4, Affy_ID 189921_at): 0.2517
- Fold Change (Gene C05C12.3, Affy_ID 183355_s_at): 0.2041
- Fold Change (Gene C06A12.3, Affy_ID 183322_at): 0.4777
- Fold Change (Gene C06G3.5, Affy_ID 189941_at): 0.4389
- Fold Change (Gene C08E3.1, Affy_ID 172309_x_at): 0.09218
- Fold Change (Gene C08E3.13, Affy_ID 172565_x_at): 0.08084
- Fold Change (Gene C08F11.13, Affy_ID 175229_at): 0.2613
- Fold Change (Gene C14C6.2, Affy_ID 183566_at): 0.2902
- Fold Change (Gene C17B7.2, Affy_ID 181325_s_at): 0.2818
- Fold Change (Gene C18G1.2, Affy_ID 191147_at): 0.4346
- Fold Change (Gene C18H9.6, Affy_ID 187412_at): 0.3068
- Fold Change (Gene C24A3.6, Affy_ID 175541_at): 0.3015
- Fold Change (Gene C27H5.4, Affy_ID 181334_s_at): 0.3156
